According to ChEMBL document CHEMBL1909046, “DrugMatrix in vitro pharmacology data”:

Experiments:
[1] = target: 5-hydroxytryptamine receptor 4 (Cavia porcellus, UniProt O70528); assay type: cell membranes, Dunkin-Hartley, Striatum, Membrane; settings: for Ki: read-out: Ki; on all read-outs here: in other assays of this panel Not Active means under 50% inhibition at 10 µM
[2] = DRUGMATRIX: Atrial Natriuretic Factor (ANF) radioligand binding (ligand: [125I] ANF (rat)); assay type: cell membranes, Cavia porcellus, Dunkin-Hartley, Adrenal gland, Membrane; settings: Not Active = under 50% inhibition at 10 µM
Thromboxane-A synthase = target: T1, Thromboxane-A synthase (Homo sapiens, UniProt P24557); experiment: biochemical; assay type: tissue-based, Platelet;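 further: enzyme inhibition assay with PGH2 supplied as substrate; in other assays of this panel Not Active means under 50% inhibition at 10 µM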
T1 sequence (P24557 whole entry): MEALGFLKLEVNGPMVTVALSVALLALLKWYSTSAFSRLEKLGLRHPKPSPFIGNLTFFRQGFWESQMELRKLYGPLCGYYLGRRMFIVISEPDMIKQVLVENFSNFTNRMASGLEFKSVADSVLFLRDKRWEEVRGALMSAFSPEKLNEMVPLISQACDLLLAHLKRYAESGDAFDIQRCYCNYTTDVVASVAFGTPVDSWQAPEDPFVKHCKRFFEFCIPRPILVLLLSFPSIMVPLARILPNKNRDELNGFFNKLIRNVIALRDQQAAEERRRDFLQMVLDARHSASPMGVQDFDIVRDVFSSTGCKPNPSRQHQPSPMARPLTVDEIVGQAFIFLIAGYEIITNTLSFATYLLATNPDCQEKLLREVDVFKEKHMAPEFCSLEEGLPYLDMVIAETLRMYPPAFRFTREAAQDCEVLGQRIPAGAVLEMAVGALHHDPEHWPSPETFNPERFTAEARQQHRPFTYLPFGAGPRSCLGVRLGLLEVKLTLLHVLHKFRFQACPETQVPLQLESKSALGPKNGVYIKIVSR

Adenosine receptor A3 = target: T2, Adenosine receptor A3 (Homo sapiens, UniProt P0DMS8); assay type: cell membranes, CHO-K1, Membrane; settings: for Ki: read-out: Ki;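 on all read-outs here: radioligand binding assay with AB-MECA serving as the labeled ligand; in other assays of this panel Not Active means under 50% inhibition at 10 µM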
T2 sequence (P0DMS8 whole entry): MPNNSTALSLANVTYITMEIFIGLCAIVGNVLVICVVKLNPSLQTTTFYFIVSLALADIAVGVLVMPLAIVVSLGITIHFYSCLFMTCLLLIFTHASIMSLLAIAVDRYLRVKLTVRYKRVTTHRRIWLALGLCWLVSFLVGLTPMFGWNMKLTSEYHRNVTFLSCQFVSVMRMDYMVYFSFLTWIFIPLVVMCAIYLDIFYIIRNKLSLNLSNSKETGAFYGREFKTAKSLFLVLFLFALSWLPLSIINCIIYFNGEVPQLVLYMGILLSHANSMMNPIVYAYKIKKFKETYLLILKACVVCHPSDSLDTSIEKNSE

[3] = target: T3, Receptor-type tyrosine-protein phosphatase C (Homo sapiens, UniProt P08575); parameters: species or system Escherichia coli;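 further: inhibition of CD45 enzyme activity measured using DiFMUP as substrate; in other assays of this panel Not Active means under 50% inhibition at 10 µM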
T3 sequence (P08575 whole entry): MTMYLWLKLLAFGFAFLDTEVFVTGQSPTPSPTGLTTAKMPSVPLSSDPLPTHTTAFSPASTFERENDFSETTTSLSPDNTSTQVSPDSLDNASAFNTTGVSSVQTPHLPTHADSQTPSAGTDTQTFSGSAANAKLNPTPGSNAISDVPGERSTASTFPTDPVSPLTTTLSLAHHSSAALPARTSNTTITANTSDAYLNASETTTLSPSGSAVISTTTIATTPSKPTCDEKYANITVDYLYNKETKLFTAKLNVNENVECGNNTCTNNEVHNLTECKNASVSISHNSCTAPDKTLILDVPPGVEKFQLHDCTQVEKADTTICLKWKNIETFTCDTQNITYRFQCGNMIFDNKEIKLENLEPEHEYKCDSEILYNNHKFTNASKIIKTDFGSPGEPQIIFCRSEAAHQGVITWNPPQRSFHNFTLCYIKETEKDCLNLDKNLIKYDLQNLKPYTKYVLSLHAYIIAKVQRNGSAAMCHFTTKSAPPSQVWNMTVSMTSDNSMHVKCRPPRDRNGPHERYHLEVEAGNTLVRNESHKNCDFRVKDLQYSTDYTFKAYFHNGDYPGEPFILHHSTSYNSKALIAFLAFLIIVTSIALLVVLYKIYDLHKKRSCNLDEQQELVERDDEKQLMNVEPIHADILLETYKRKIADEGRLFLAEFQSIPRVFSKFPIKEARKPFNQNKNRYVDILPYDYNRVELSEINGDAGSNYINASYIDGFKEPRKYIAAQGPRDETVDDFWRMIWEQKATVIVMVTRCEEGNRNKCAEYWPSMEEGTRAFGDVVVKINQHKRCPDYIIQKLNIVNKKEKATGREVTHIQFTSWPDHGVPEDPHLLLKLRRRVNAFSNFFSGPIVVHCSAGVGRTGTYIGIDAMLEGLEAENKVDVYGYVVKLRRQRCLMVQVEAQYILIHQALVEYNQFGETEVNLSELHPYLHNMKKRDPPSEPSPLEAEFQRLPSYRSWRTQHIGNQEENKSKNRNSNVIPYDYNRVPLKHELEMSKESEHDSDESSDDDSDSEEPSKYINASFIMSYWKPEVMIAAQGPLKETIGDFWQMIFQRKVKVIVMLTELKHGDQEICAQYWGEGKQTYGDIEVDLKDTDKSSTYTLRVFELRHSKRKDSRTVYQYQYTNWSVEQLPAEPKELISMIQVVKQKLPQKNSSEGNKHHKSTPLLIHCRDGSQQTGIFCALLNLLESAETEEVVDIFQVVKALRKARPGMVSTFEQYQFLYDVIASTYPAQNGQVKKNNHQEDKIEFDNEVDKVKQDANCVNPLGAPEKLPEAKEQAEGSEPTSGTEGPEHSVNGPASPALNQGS

Sequence of 5-hydroxytryptamine receptor 4 (O70528 whole entry): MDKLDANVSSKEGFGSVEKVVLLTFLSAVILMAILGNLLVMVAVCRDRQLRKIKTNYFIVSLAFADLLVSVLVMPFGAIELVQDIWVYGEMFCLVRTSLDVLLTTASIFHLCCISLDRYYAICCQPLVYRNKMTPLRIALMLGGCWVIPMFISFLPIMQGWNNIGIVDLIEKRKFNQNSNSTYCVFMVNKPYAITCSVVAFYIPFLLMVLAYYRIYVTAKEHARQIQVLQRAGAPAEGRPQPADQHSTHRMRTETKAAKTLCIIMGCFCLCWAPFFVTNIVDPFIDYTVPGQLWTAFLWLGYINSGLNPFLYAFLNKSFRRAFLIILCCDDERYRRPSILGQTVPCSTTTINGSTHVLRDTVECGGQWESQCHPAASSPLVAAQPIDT

SMILES | IC50 [1] | IC50 [2] | Ki [2] | IC50 (Thromboxane-A synthase; read-out: IC50) [µM] | IC50 (Adenosine receptor A3; cho-k1) | IC50 [3] | IC50 (Thromboxane-A synthase; platelet) | IC50 (Adenosine receptor A3; read-out: IC50) [µM] | Ki (Adenosine receptor A3) [µM] | IC50 ([1]; read-out: IC50) [µM] | Ki [1] [µM] | Ki [3]
CC(C)(C)NC(=O)[C@@H]1C[C@@H]2CCCC[C@@H]2CN1C[C@@H](O)[C@H](Cc1ccccc1)NC(=O)[C@H](CC(N)=O)NC(=O)c1ccc2ccccc2n1 | Not Active | Not Active | Not Active | 2.18 | Not Active | Not Active | – | – | – | – | – | –
CC(=O)[C@@]1(O)CC[C@H]2[C@@H]3C[C@H](C)C4=CC(=O)CC[C@]4(C)[C@H]3CC[C@@]21C | Not Active | Not Active | Not Active | – | Not Active | Not Active | Not Active | – | – | – | – | –
N[C@@H](Cc1ccc(N(CCCl)CCCl)cc1)C(=O)O | Not Active | Not Active | Not Active | – | Not Active | Not Active | Not Active | – | – | – | – | –
CCCCc1oc2ccccc2c1C(=O)c1cc(I)c(OCCN(CC)CC)c(I)c1 [AMIODARONE] | Not Active | – | – | – | – | Not Active | Not Active | – | – | – | – | –
OCCN(CCO)c1nc(N2CCCCC2)c2nc(N(CCO)CCO)nc(N3CCCCC3)c2n1 [DIPYRIDAMOLE] | Not Active | Not Active | Not Active | – | Not Active | Not Active | Not Active | – | – | – | – | –
Cc1oncc1C(=O)Nc1ccc(C(F)(F)F)cc1 [LEFLUNOMIDE] | Not Active | Not Active | Not Active | – | Not Active | Not Active | Not Active | – | – | – | – | –
c1ccc([C@H]2CN3CCSC3=N2)cc1 [LEVAMISOLE] | Not Active | Not Active | Not Active | – | Not Active | Not Active | Not Active | – | – | – | – | –
N[C@@H](Cc1ccc(O)c(O)c1)C(=O)O [LEVODOPA] | Not Active | Not Active | Not Active | – | Not Active | Not Active | Not Active | – | – | – | – | –
N[C@@H](Cc1cc(I)c(Oc2ccc(O)c(I)c2)c(I)c1)C(=O)O [LIOTHYRONINE] | Not Active | – | – | – | Not Active | Not Active | Not Active | – | – | – | – | –
O=NN(CCCl)C(=O)NC1CCCCC1 [LOMUSTINE] | Not Active | Not Active | Not Active | – | Not Active | Not Active | Not Active | – | – | – | – | –
CCOC(=O)N1CCC(=C2c3ccc(Cl)cc3CCc3cccnc32)CC1 [LORATADINE] | Not Active | Not Active | Not Active | – | Not Active | Not Active | Not Active | – | – | – | – | –
Cn1ccnc1S [METHIMAZOLE] | Not Active | Not Active | Not Active | – | Not Active | Not Active | Not Active | – | – | – | – | –
CC[C@@H](CO)NC(=O)[C@@H]1C=C2c3cccc4[nH]cc(c34)C[C@H]2N(C)C1 [METHYLERGONOVINE] | Not Active | Not Active | Not Active | – | Not Active | Not Active | Not Active | – | – | – | – | –
COc1nc(C)nc(Cl)c1NC1=NCCN1 [MOXONIDINE] | Not Active | Not Active | Not Active | – | Not Active | Not Active | Not Active | – | – | – | – | –
COc1c(C)c2c(c(O)c1C/C=C(\C)CCC(=O)O)C(=O)OC2 [MYCOPHENOLIC ACID] | Not Active | Not Active | Not Active | – | Not Active | Not Active | Not Active | – | – | – | – | –
O=c1ncn2nc(Sc3ccc(F)cc3F)ccc2c1-c1c(Cl)cccc1Cl [NEFLAMAPIMOD] | Not Active | Not Active | Not Active | – | – | Not Active | Not Active | 8.55 | 4.83 | – | – | –
CN1CCN(CCCN2c3ccccc3Sc3ccc(Cl)cc32)CC1 [PROCHLORPERAZINE] | – | – | – | – | Not Active | Not Active | Not Active | – | – | 1.16 | 0.194 | –
CO[C@H]1/C=C/O[C@@]2(C)Oc3c(C)c(O)c4c(O)c(c(/C=N/N5CCN(C)CC5)c(O)c4c3C2=O)NC(=O)/C(C)=C\C=C\[C@H](C)[C@H](O)[C@@H](C)[C@@H](O)[C@@H](C)[C@H](OC(C)=O)[C@@H]1C [RIFAMPIN] | Not Active | Not Active | Not Active | – | Not Active | Not Active | Not Active | – | – | – | – | –
Nc1nc2ccc(OC(F)(F)F)cc2s1 [RILUZOLE] | Not Active | Not Active | Not Active | – | Not Active | – | Not Active | – | – | – | – | Not Active
Cc1nc2n(c(=O)c1CCN1CCC(c3noc4cc(F)ccc34)CC1)CCCC2 [RISPERIDONE] | Not Active | – | – | – | Not Active | Not Active | Not Active | – | – | – | – | –
C=CCC1(C(C)CCC)C(=O)NC(=O)NC1=O (configuration not stated) [SECOBARBITAL] | Not Active | Not Active | Not Active | – | Not Active | Not Active | Not Active | – | – | – | – | –
C[C@@H]1CN(c2c(F)c(N)c3c(=O)c(C(=O)O)cn(C4CC4)c3c2F)C[C@H](C)N1 [SPARFLOXACIN] | Not Active | Not Active | Not Active | – | Not Active | Not Active | Not Active | – | – | – | – | –
Cc1noc(NS(=O)(=O)c2ccc(N)cc2)c1C [SULFISOXAZOLE] | Not Active | Not Active | Not Active | – | Not Active | Not Active | Not Active | – | – | – | – | –
CSc1ccc(/C=C2/C(C)=C(CC(=O)O)c3cc(F)ccc32)cc1 [SULINDAC SULFIDE] | Not Active | Not Active | Not Active | – | – | Not Active | Not Active | 7.23 | 4.09 | – | – | –
Nc1c2c(nc3ccccc13)CCCC2 [TACRINE] | Not Active | Not Active | Not Active | – | Not Active | Not Active | Not Active | – | – | – | – | –
CC/C(=C(\c1ccccc1)c1ccc(OCCN(C)C)cc1)c1ccccc1 [TAMOXIFEN] | Not Active | – | – | 0.916 | – | Not Active | – | 3.7 | 2.09 | – | – | –
CC(C)N1CCN(c2ccc(OCC3COC(Cn4cncn4)(c4ccc(Cl)cc4Cl)O3)cc2)CC1 (configuration not stated) [TERCONAZOLE] | – | – | – | – | Not Active | Not Active | Not Active | – | – | 14.8 | 2.46 | –
Nc1nc2nc[nH]c2c(=S)[nH]1 [THIOGUANINE] | Not Active | Not Active | Not Active | – | – | Not Active | Not Active | 21.7 | 12.3 | – | – | –
Cc1cccc(N(C)C(=S)Oc2ccc3ccccc3c2)c1 [TOLNAFTATE] | Not Active | Not Active | Not Active | – | Not Active | Not Active | Not Active | – | – | – | – | –
